Source: US8227424B2, “Collagen peptide, dipeptide and malady inhibitor” (Nitta Gelatin Inc., priority 2008, dated 2012)
Square brackets hold non-standard residues; d marks the D form. Ends that are not written are not given here. Peptide text beside a SMILES is read from it. Hyp = O=C(O)[C@@H]1C[C@@H](O)CN1

Columns and labels:
[1] = in vivo; conditions: male, Wister, rat, po, 215 nmol/10 mL
Method: (§1) Wister strain male rats (170 g) were caused to go on a fast of one night and then subjected to experiments.
(§2) As a test method, a cannula was equipped to a heart and portal vein of each rat, and one-directional perfusion was carried out. The perfusion liquid being used was prepared in a way that to a Krebs-Ringer bicarbonate solution (KRB solution, pH 7.4) comprising 9.0 g of NaCl, 8 mL of 5.75% KCl, 2 mL of 10.55% KH2PO4, 2 mL of 19% MgSO4, 2.73 g of NaHCO3, 3.43 g of glucose and 1255 mL of water, there was added 10 g of bovine serum albumin, 0.5 mL of dexamethasone (0.123 mg/mL) and 0.5 mL of noradrenaline (0.024 mg/mL) relative to 500 mL of the aforementioned KRB solution.
(§3) An amount of 0.5 mL of 30% sulfosalicylic acid was added to 5.0 mL of perfusion sample liquid taken from portal vein, and the resultant mixture was vigorously stirred and then left in a refrigerator for one night. This sample was centrifuged at 3000 rpm for 10 minutes to remove protein.
(§4) Furthermore, 3.0 mL of the aforementioned centrifugal supernatant was weighed out and placed into a screw opening test tube, and thereto an equivalent of concentrated hydrochloric acid was added to carry out hydrolysis at 110° C. for 24 hours. Concentration to dryness was carried out with an evaporator to remove hydrochloric acid, and then the residue was dissolved into 5 mL of distilled water, and thereto several drops of saturated lithium hydroxide solution were added to adjust pH to the range of 5 to 7, and the volume was adjusted to 10 mL. […] A value obtained by subtracting the free type Hyp amount before hydrolysis from the total Hyp amount after hydrolysis is a peptide-form Hyp amount.
(§5) Analysis of the dipeptides in the perfusion liquid was carried out by reversed-phase HPLC analysis. As HPLC apparatus, LCSS-905 system produced by JASCO Corporation comprising a liquid-feeding pump, a decassa, an autosamplor, a column oven, ultraviolet spectrophotometer, a printer and a system controller was used. As the reversed-phase column, Nova Pak C18 (3.9×150 mm) was used.
(§6) A linear-gradient moving bed of a 0.1% TFA-containing acetonitrile-water system was used, the injection amount of the sample was 70 μL, and the flow rate was 1 mL/min.
(§7) As HPLC apparatus, U980HPLC (produced by JASCO Corporation) was used. This apparatus was equipped with an ODS (C18) column (Mightysil RP-18, 2×250 mm, produced by Kanto Chemical Co Ltd). The moving bed solvent was a 0.2% formic acid-containing acetonitrile-water system, and the concentration was raised from 0% to 40% acetonitrile by linear gradient in 40 minutes, and washing was carried out with 100% acetonitrile for 10 minutes. The injection amount of the sample was 10 μL, and the column temperature was 40° C.
(§8) The MS analysis was carried out in accordance with an MS/MS system with a Quattro LC mass spectrophotometer (Micromass, Manchester, UK) by a Multiple Reaction Monitoring method of 4 channels. That is to say, an eluate from the HPLC was monitored by m/z being [M+H]^+ and m/s of its fragment ion species.

[2] = rat, in vivo
Method: as §1, §2, §3, §4, §5, §6, §7, §8

[3] = system: osteoblast stock MC3T3-E1; assay: Evaluation Test 1-2: promotion of differentiation and activation of osteoblasts (ALP); assay type: cell-based; conditions: MC3T3-E1, 2.5 mmol/L end concentration, after 10 days culture, control (blank) = 100
Method: Each of dexamethasone (end concentration: 1 nmol/L), β-glycerophosphoric acid (end concentration: 5 mmol/L), and ascorbic acid (end concentration: 100 μg/mL) was added to an osteoblast stock MC3T3-E1 culture liquid, and then the Hyp-Gly and a 1:1 mixture of the Hyp-Gly and the Pro-Hyp were used, and each of them was added to the aforementioned culture liquid so as to be 2.5 mmol/L in end concentration. After 10 days from the culture, each promotion activity of alkaline phosphatase (ALP) being a marker enzyme for differentiation and calcification of osteoblasts was examined. In the same way, the ALP promotion activity when using the other dipeptides (Pro-Hyp, Ala-Hyp, Leu-Hyp, Phe-Hyp, Ser-Hyp), the tripeptide (Pro-Hyp-Gly) and the amino acids (Pro, Hyp) was examined. Furthermore, as a control, the ALP promotion activity when adding no peptide (blank) was also examined.

[4] = system: precursory cartilage cell stock ATDC5; assay: Evaluation Test 1-3: inhibition of degeneration of cartilage cells (ALP); assay type: cell-based; conditions: ATDC5, 2.5 mmol/L end concentration, after 5 days culture, control (blank) = 100
Method: The Hyp-Gly, a 1:1 mixture of the Hyp-Gly and the Pro-Hyp and a 1:1:1 mixture of the Hyp-Gly, the Pro-Hyp and the Ala-Hyp were used, and each dipeptide was added to a precursory cartilage cell stock ATDC5 culture liquid so as to be 2.5 mmol/L in end concentration. After 5 days from the culture, each inhibition activity of alkaline phosphatase (ALP) being a marker enzyme for hypertrophied cartilages and calcification was examined. In the same way, the ALP activity when using the other dipeptides (Pro-Hyp, Ala-Hyp, Leu-Hyp, Phe-Hyp, Ser-Hyp), the tripeptide (Pro-Hyp-Gly) and the amino acids (Pro, Hyp) was examined. Furthermore, as a control, the ALP activity when adding no peptide (blank) was also examined.

[5] = system: osteoclasts; assay: Evaluation Test 1-1: Pit assay, osteoclasts cultured on dentin slices; assay type: cell-based, mouse; conditions: control (blank) = 100, n = 6; for Relative number (%) of TRAP positive multinucleate giant cells (osteoclasts) in culture on dentin slices: culture about 1 week on dentin slices; for Relative number (%) of Pit: number of absorption pits on dentin slices, culture about 1 week
Method: In addition, the degree of inhibition of differentiation and activation of osteoclasts by the various peptides and amino acids was evaluated by the following Pit assay. That is to say, the Pit assay where osteoclasts were cultured on […] was carried out in accordance with Kakudo S, et al. (1996). J. Bone Miner. Metab. 14: 129-136, specifically, as follows.
Precursory cells of osteoclasts derived from young mouse […] were freeze-preserved at −80° C. together with a bone marrow stroma cells-containing suspension in the presence of 10% DMSO, thereby making matured osteoclasts extinct.
These cells of 2.0×10^5 in number were seeded into each well of a 96-well plate where dentin slices were set, and each peptide to be tested was added to the culture liquid, and culture was carried out at 37° C. in 5% CO2 for about 1 week. Thereafter, cells were removed from the dentin slices by a silicon-made rubber POLICEMAN, and then the dentin slices were dyed with an […] for several minutes. Hereupon, the number of TRAP dyeing positive multinucleate giant cells (osteoclasts) was counted by the TRAP dyeing, and the number relative to the number of cells in the control (blank) was calculated. Thereafter, the Pit number (number of absorption pits) by osteoclasts was counted under a microscope, and the degree of inhibition of activity of osteoclasts by each peptide to be tested was indicated by the ratio relative to the blank (control).

[6] = system: osteoclasts (primary mouse bone marrow cell culture); assay: Evaluation Test 1-1: osteoclast differentiation culture on plastic Petri dish (TRAP); assay type: cell-based; conditions: 625 μM end concentration, after 6 days culture, control (blank) = 100, n = 6
Method: The evaluation was carried out in accordance with Kobayashi Y. et al.'s osteoclast differentiation culture method [J. Bone Miner. Metab. (2004) 22: p. 318-328].
That is to say, the Hyp-Gly and a 1:1 mixture of the Hyp-Gly and the Pro-Hyp were used, and each of them was added to a primary mouse bone marrow cell culture liquid so as to be 625 μM in end concentration. After 6 days from the culture, each inhibition activity of tartaric acid resistant acid phosphatase (TRAP) being a marker enzyme was examined. In the same way, the TRAP inhibition activity when using the other dipeptides (Pro-Hyp, Ala-Hyp, Leu-Hyp, Phe-Hyp, Ser-Hyp), the tripeptide (Pro-Hyp-Gly) and the amino acids (Pro, Hyp) was examined. Furthermore, as a control, the TRAP inhibition activity when adding no peptide (blank) was also examined.

[7] = system: precursory cartilage cell stock ATDC5; assay: Evaluation Test 2-2: ALP inhibition activity of Pro-Hyp and comparisons; assay type: cell-based; conditions: ATDC5, 2.5 mM, after 5 days culture, N group = 1.0
Method: The aforementioned PC (PC group), FC (FC group) and PC-CA (PC-CA group) were used, and each collagen peptide was added to a precursory cartilage cell stock ATDC5 culture liquid so as to be 0.1% in end concentration. After 5 days from the culture, each inhibition activity of alkaline phosphatase (ALP) being a marker enzyme for hypertrophied cartilages and calcification was examined. For comparison, the ALP inhibition activity when adding no peptide (N group), the ALP inhibition activity when using peptone (Pe group) of 0.1% in end concentration, and the ALP inhibition activity when using the aforementioned PC-Cont (PC-Cont group) and PC-CA-Cont (PC-CA-Cont group) were also examined.
The ALP inhibition activity was examined in the same way as of evaluation test 2-1 except that: a dipeptide Pro-Hyp as synthesized by a solid-phase method (produced by PH Japan) ([Pro-Hyp] group) was used, the amount of its addition was changed to 2.5 mM and, for comparison, no peptide was added (N group) or glycine being a free amino acid (Gly group), proline being a free amino acid (Pro group), hydroxyproline being a free amino acid (Hyp group), a free amino acid mixture of proline and hydroxyproline ([Pro+Hyp] group), a free amino acid mixture of glycine, proline and hydroxyproline ([Gly+Pro+Hyp] group), and a tripeptide Pro-Hyp-Gly as synthesized by a solid-phase method (produced by PH Japan) ([Pro-Hyp-Gly] group) were used.

Molecule | level at time molar [1] | Intestine absorption, in words [2] | Relative value (%) of ALP [3] | Relative value (%) of ALP [4] | Relative number (%) of TRAP positive multinucleate giant cells (osteoclasts) in culture on dentin slices [5] | Relative number (%) of Pit [5] | Relative area (%) of TRAP positive multinucleate giant cells (osteoclasts) in culture on plastic Petri dish [6] | Relative number (%) of TRAP positive multinucleate giant cells (osteoclasts) in culture on plastic Petri dish [6] | Relative ALP activity [7]
O=C(O)CNC(=O)[C@@H]1C[C@@H](O)CN1 [Example 1, Hyp-Gly] (H-[Hyp]-Gly-OH; N-terminus and C-terminus assumed) | 9.8 µM | absorbed into intestine extremely rapidly and stably (without being decomposed into amino acids) |  |  |  |  |  |  | 
O=C(O)[C@@H]1C[C@@H](O)CN1C(=O)[C@@H]1CCCN1 [Referential Example 1-1, Pro-Hyp] (H-Pro-[Hyp]-OH; N-terminus and C-terminus assumed) | 21.3 µM | absorbed into intestine extremely rapidly and stably (without being decomposed into amino acids) |  |  |  |  |  |  | 
O=C(O)[C@@H]1CCCN1 [Comparative Example 5, Proline] |  |  | 97 ± 15% | 98 ± 10% | 119 ± 20% | 121 ± 23% | 125 ± 69% | 119 ± 44% | 0.98 ± 0.1
Phe-Hyp [Comparative Example 2] |  |  | 109 ± 11% | 109 ± 11% | 98 ± 11% | 109 ± 15% | 118 ± 21% | 119 ± 16% | 
Leu-Hyp [Comparative Example 1] |  |  | 92 ± 12% | 93 ± 12% | 101 ± 12% | 91 ± 11% | 83 ± 27% | 88 ± 22% | 
NCC(=O)O [Gly, glycine] |  |  |  |  |  |  |  |  | 1.1 ± 0.01
C[C@H](N)C(=O)N1C[C@H](O)C[C@H]1C(=O)O [Referential Example 1-2, Ala-Hyp] (H-Ala-[Hyp]-OH; N-terminus and C-terminus assumed) | 1.2 µM |  |  |  |  |  |  |  | 
O=C(O)[C@@H]1C[C@@H](O)CN1 [Comparative Example 6, hydroxyproline] |  |  | 103 ± 25% | 101 ± 1% | 141 ± 9 % | 131 ± 11 % | 117 ± 13 % | 126 ± 4 % | 1.0 ± 0.01
Pro-[Hyp]-Gly [Comparative Example 4] |  |  | 103 ± 22% | 84 ± 14% | 91 ± 11% | 97 ± 13% | 113 ± 11% | 109 ± 15% | 0.8 ± 0.01
N[C@@H](CO)C(=O)N1C[C@H](O)C[C@H]1C(=O)O [Comparative Example 3, Ser-Hyp] (H-Ser-[Hyp]-OH; N-terminus and C-terminus assumed) | 0.7 µM |  |  |  |  |  |  |  | 
